Legend:
HCT116 = test: Cytotoxicity, MTT assay, HCT116; assay type: cell-based, human; details: 24 h treatment, absorbance 570 nm, three replicates
Experimental: (§1) Cytotoxicity of the compounds were tested against human carcinoma cells using the microculture methyl-thiazolyl-tetrazolium (MTT) assay as described previously. Briefly, the cell lines were maintained in a humidified atmosphere containing 5% CO2 at 37 °C. For preparing working solution, 1 μmol of each purified ustiloxin was dissolved in 10 mL of ultrapure water to obtain the stock solution (100 μM), which was further diluted to a series of concentrations (50, 25, 12.5, 6.25, 3.125, 1, 0.1, 1 × 10^−2, 1 × 10^−3, 1 × 10^−4, 1 × 10^−5 μM) with ultrapure water. Normally, 200 μL of the cell suspensions (5 × 10^4 cells/mL) was plated in 96-well culture plates at 37 °C. After 12 h, 20 μL of working solution was added to each well respectively and cultured at 37 °C for 24 h. Then, MTT was dissolved in saline to 5 mg/mL, and 20 μL of this solution was added to each well. After 4 h, the medium was removed, and then 100 μL of DMSO was added to dissolve any formazan crystals formed. Absorbance was then determined at 570 nm. The cell lines of colon cancer cells (HCT-116), non-small-cell lung carcinoma cells (NCI-H1650), gastric cancer cells (BGC-823), and liver hepatocellular carcinoma cells (HepG2) were tested for all isolated compounds. In addition, lung adenocarcinoma cells (A549) were tested on ustiloxins A (2), B (3), and G (1), and melanoma cells (A375) were tested on ustiloxin G (1). Ultrapure water and taxol were used as the negative and positive controls, respectively. All experiments were performed with three replicates.

NCI-H1650 = test: Cytotoxicity, MTT assay, NCI-H1650; assay type: cell-based, human; details: 24 h treatment, absorbance 570 nm, three replicates
Experimental: as §1

BGC-823 = test: Cytotoxicity, MTT assay, BGC-823; assay type: cell-based, human; details: 24 h treatment, absorbance 570 nm, three replicates
Experimental: as §1

HepG2 = test: Cytotoxicity, MTT assay, HepG2; assay type: cell-based, human; details: 24 h treatment, absorbance 570 nm, three replicates
Experimental: as §1

A549 = test: Cytotoxicity, MTT assay, A549; assay type: cell-based, human; details: 24 h treatment, absorbance 570 nm, three replicates
Experimental: as §1

A375 = test: Cytotoxicity, MTT assay, A375; assay type: cell-based, human; details: 24 h treatment, absorbance 570 nm, three replicates
Experimental: as §1, with “Ultrapure water and taxol were used as the negative and positive controls, respectively. All experiments were performed with three replicates.” left out

[1] = test system: rice (Oryza sativa) seeds, radicle; test: Inhibition of radicle elongation of rice seeds; details: 48 h, 25 °C, dark, mean of triplicate ± SD
Experimental: (§2) Phytotoxicity of the compounds was evaluated by their inhibitory activities on the radicle and germ elongation of rice (Oryza sativa) seeds. Two varieties (Lijiang and Zhonghua 11) of the seeds, which were obtained from Prof. Zejian Guo (Department of Plant Pathology and collected in 2015, China Agricultural University) were used.
(§3) The bioassay was performed using the method described previously with some modifications. Briefly, five 3-day germinated rice seeds of each rice variety were sown onto each well of a 24-well plate, containing 200 μL of working solution. For preparing working solution, 1 mg of each purified compound was dissolved in 1 mL of ultrapure water to obtain the stock solution (1 mg/mL), which was further diluted to a series of concentrations (200, 100, 50, 20, and 10 μg/mL) with ultrapure water. The ultrapure water was used as the negative control, and glyphosate (N-(phosphonomethyl)glycine) at the same concentrations as the positive control. Plates were incubated in a moist chamber at 25 °C in the dark. The length of each radicle or germ was measured after treatment for 48 h. The inhibition of radicle or germ elongation was calculated as follows: Inhibition (%) = [(Lc − Lt)/Lc] × 100, where Lc is the radicle or germ length of the control group, and Lt is the length of the treated group.
(§4) All experiments were performed with three replicates, and the results were represented by their mean values and the standard deviations (SD). The data were carried out using analysis of variance (one-way ANOVA) to detect significant differences by PROC ANOVA of SAS version 8.2.

[2] = test system: rice (Oryza sativa) seeds, germ; test: Inhibition of germ elongation of rice seeds; details: 48 h, 25 °C, dark, mean of triplicate ± SD
Experimental: as §2, §3, §4

rice seedlings = test: Abnormal swelling of roots and germs of rice seedlings; set-up: species or system Oryza sativa; details: observation in words; Figure 3B shows 200 µg/mL of ustiloxin G, variety Lijiang
Experimental: as §3

[3] = non-small-cell lung carcinoma cells
[4] = liver hepatocellular carcinoma cells

CC(=O)O[C@H]1C(=O)[C@@]2(C)[C@H]([C@H](OC(=O)c3ccccc3)[C@]3(O)C[C@H](OC(=O)[C@H](O)[C@@H](NC(=O)c4ccccc4)c4ccccc4)C(C)=C1C3(C)C)[C@]1(OC(C)=O)CO[C@@H]1C[C@@H]2O [Taxol, reference compound]
IC50 (HCT116; Homo sapiens, HCT-116, colon cancer cells): 0.0019 µM | IC50 (NCI-H1650; Homo sapiens, NCI-H1650, non-small-cell lung carcinoma cells): 1.1 µM | IC50 (BGC-823; Homo sapiens, BGC-823, gastric cancer cells): 0.000107 µM | IC50 (HepG2; Homo sapiens, HepG2, liver hepatocellular carcinoma cells): 0.0146 µM | IC50 (A549; Homo sapiens, A549, lung adenocarcinoma cells): 0.023 µM | IC50 (A375; Homo sapiens, A-375, melanoma cells): 0.022 µM

CC[C@@]1(C)Oc2cc(c([S+]([O-])C[C@@H](O)C[C@H](N)C(=O)O)cc2O)[C@@H](O)[C@H](NC)C(=O)N[C@@H](C)C(=O)N[C@@H]1C(=O)NCC(=O)O (some centres unmarked) [Ustiloxin B (3), ustiloxin B]
IC50 (HCT116; colon cancer cells): 7.2 µM | IC50 (NCI-H1650; [3]): 21.6 µM | IC50 (BGC-823; gastric cancer cells): 1.03 µM | IC50 (HepG2; [4]): 13 µM | IC50 (A549; lung adenocarcinoma cells): > 50 µM | Inhibition Ratio (%) Seed Radicle Var. Lijiang ([1]; 10 µg/mL): 4.16 ± 0.66 l % | Inhibition Ratio (%) Seed Radicle Var. Zhonghua 11 ([1]; 10 µg/mL): 11.90 ± 6.45 l % | Inhibition Ratio (%) Seed Radicle Var. Lijiang ([1]; 20 µg/mL): 14.27% | Inhibition Ratio (%) Seed Radicle Var. Zhonghua 11 ([1]; 20 µg/mL): 20.22% | Inhibition Ratio (%) Seed Radicle Var. Lijiang ([1]; 50 µg/mL): 53.24 ± 4.98 e % | Inhibition Ratio (%) Seed Radicle Var. Zhonghua 11 ([1]; 50 µg/mL): 54.78 ± 3.09 d % | Inhibition Ratio (%) Seed Radicle Var. Lijiang ([1]; 100 µg/mL): 86.62 ± 1.98 b % | Inhibition Ratio (%) Seed Radicle Var. Zhonghua 11 ([1]; 100 µg/mL): 87.80% | Inhibition Ratio (%) Seed Radicle Var. Lijiang ([1]; 200 µg/mL): 95.32 ± 1.32 a % | Inhibition Ratio (%) Seed Radicle Var. Zhonghua 11 ([1]; 200 µg/mL): 93.04 ± 2.10 a % | Inhibition Ratio (%) Seed Germ Var. Lijiang ([2]; 10 µg/mL): 13.54% | Inhibition Ratio (%) Seed Germ Var. Zhonghua 11 ([2]; 10 µg/mL): 3.30% | Inhibition Ratio (%) Seed Germ Var. Lijiang ([2]; 20 µg/mL): 20.63% | Inhibition Ratio (%) Seed Germ Var. Zhonghua 11 ([2]; 20 µg/mL): 12.02% | Inhibition Ratio (%) Seed Germ Var. Lijiang ([2]; 50 µg/mL): 37.98 ± 3.83 e % | Inhibition Ratio (%) Seed Germ Var. Zhonghua 11 ([2]; 50 µg/mL): 35.60% | Inhibition Ratio (%) Seed Germ Var. Lijiang ([2]; 100 µg/mL): 49.65 ± 2.13 d % | Inhibition Ratio (%) Seed Germ Var. Zhonghua 11 ([2]; 100 µg/mL): 44.72% | Inhibition Ratio (%) Seed Germ Var. Lijiang ([2]; 200 µg/mL): 64.39% | Inhibition Ratio (%) Seed Germ Var. Zhonghua 11 ([2]; 200 µg/mL): 55.61 ± 2.75 a % | abnormal swelling of the roots and germs of rice seedlings (rice seedlings): abnormal swelling

CC[C@@]1(C)Oc2cc(c([S+]([O-])CCO)cc2O)[C@@H](O)[C@H](NC)C(=O)N[C@@H](C(C)C)C(=O)N[C@@H]1C(=O)NCC(=O)O (some centres unmarked) [Ustiloxin G (1), ustiloxin G]
IC50 (HCT116; colon cancer cells): > 50 µM | IC50 (NCI-H1650; [3]): > 50 µM | IC50 (BGC-823; gastric cancer cells): > 50 µM | IC50 (HepG2; [4]): > 50 µM | IC50 (A549; lung adenocarcinoma cells): 36.5 µM | IC50 (A375; melanoma cells): 22.5 µM | Inhibition Ratio (%) Seed Radicle Var. Lijiang ([1]; 10 µg/mL): 12.56% | Inhibition Ratio (%) Seed Radicle Var. Zhonghua 11 ([1]; 10 µg/mL): 27.27% | Inhibition Ratio (%) Seed Radicle Var. Lijiang ([1]; 20 µg/mL): 17.00% | Inhibition Ratio (%) Seed Radicle Var. Zhonghua 11 ([1]; 20 µg/mL): 31.67% | Inhibition Ratio (%) Seed Radicle Var. Lijiang ([1]; 50 µg/mL): 37.64 ± 1.21 g % | Inhibition Ratio (%) Seed Radicle Var. Zhonghua 11 ([1]; 50 µg/mL): 54.14 ± 4.20 d % | Inhibition Ratio (%) Seed Radicle Var. Lijiang ([1]; 100 µg/mL): 90.33% | Inhibition Ratio (%) Seed Radicle Var. Zhonghua 11 ([1]; 100 µg/mL): 90.16 ± 3.62 a % | Inhibition Ratio (%) Seed Radicle Var. Lijiang ([1]; 200 µg/mL): 95.19 ± 1.92 a % | Inhibition Ratio (%) Seed Radicle Var. Zhonghua 11 ([1]; 200 µg/mL): 93.40 ± 1.91 a % | Inhibition Ratio (%) Seed Germ Var. Lijiang ([2]; 10 µg/mL): 2.74 ± 4.76 l % | Inhibition Ratio (%) Seed Germ Var. Zhonghua 11 ([2]; 10 µg/mL): 14.11% | Inhibition Ratio (%) Seed Germ Var. Lijiang ([2]; 20 µg/mL): 8.89% | Inhibition Ratio (%) Seed Germ Var. Zhonghua 11 ([2]; 20 µg/mL): 14.68% | Inhibition Ratio (%) Seed Germ Var. Lijiang ([2]; 50 µg/mL): 27.96 ± 3.32 f % | Inhibition Ratio (%) Seed Germ Var. Zhonghua 11 ([2]; 50 µg/mL): 36.29% | Inhibition Ratio (%) Seed Germ Var. Lijiang ([2]; 100 µg/mL): 36.95 ± 5.23 e % | Inhibition Ratio (%) Seed Germ Var. Zhonghua 11 ([2]; 100 µg/mL): 39.33% | Inhibition Ratio (%) Seed Germ Var. Lijiang ([2]; 200 µg/mL): 65.01% | Inhibition Ratio (%) Seed Germ Var. Zhonghua 11 ([2]; 200 µg/mL): 50.45% | abnormal swelling of the roots and germs of rice seedlings (rice seedlings): abnormal swelling

— PMC5331433, “Ustiloxin G, a New Cyclopeptide Mycotoxin from Rice False Smut Balls” (Toxins, 2017)
